Measured values from patent US20030162777A1, “Novel N-acylated heterocycles” (Recordati S.A., priority 2001, published 2003).

target: T1, human 5HT1A-serotonergic receptor (Homo sapiens, UniProt P08908); experiment: Radioligand binding to recombinant 5-HT1A receptors; details: [3H]8-OH-DPAT 1 nM, membranes of HeLa cells with human 5-HT1A receptor; Ki from IC50 by Cheng & Prusoff; read-out: Binding affinity for 5HT1A receptors, Ki
T1 construct: expressed in transfected cells; host or cells: HeLa (human cell line), stably transfected; cell membranes used
T1 sequence (P08908 1-422): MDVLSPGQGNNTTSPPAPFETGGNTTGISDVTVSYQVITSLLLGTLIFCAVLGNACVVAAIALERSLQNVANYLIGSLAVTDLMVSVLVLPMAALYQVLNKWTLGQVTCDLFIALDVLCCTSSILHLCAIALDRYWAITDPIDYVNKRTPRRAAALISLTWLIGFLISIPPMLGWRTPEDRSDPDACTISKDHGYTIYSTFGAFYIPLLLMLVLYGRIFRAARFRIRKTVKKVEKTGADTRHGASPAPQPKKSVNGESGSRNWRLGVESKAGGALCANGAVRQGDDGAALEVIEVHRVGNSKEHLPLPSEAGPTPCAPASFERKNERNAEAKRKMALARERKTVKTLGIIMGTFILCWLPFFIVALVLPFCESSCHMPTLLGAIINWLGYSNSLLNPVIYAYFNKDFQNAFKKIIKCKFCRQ
Protocol: Genomic clone G-21 coding for the human 5HT1A-serotonergic receptor was stably transfected in a human cell line (HeLa). HeLa cells were grown as monolayers in Dulbecco's modified Eagle medium (DMEM), containing 10% foetal bovine serum, gentamicin ([…]) and 5% carbon dioxide, at 37° C. The cells were detached from the growth flask at 95% confluence by a cell scraper and were lysed in cold 5 mM Tris and 5 mM EDTA buffer (pH 7.4). The homogenates were centrifuged at 40000×g×20 minutes and the pellets were resuspended in a small volume of cold 5 mM Tris and 5 mM EDTA buffer (pH 7.4) and immediately frozen and stored at −70° C. until use. On the day of experiment, the cell membranes were resuspended in incubation buffer: 50 mM Tris HCl (pH 7.4), 2.5 mM MgCl2, […] (Fargin et al., Nature 335, 358-360, 1988). The membranes were incubated in a final volume of 1 ml for 30 minutes at 30° C. with 1 nM [^3H]8-OH-DPAT, in the absence or presence of the test compounds. Non-specific binding was determined in the presence of 10 μM 5-HT. Incubation was stopped by addition of cold Tris-HC 1 buffer and rapid filtration through a 0.2%-polyethyleneimine-pretreated Whatman-GF/B or Schleicher-&-Schuell-GF52 filter.
The affinity of the tested compounds was evaluated as inhibition of specific binding of the radioligand to 5-HT1A receptors (IC50) by using the non-linear curve-fitting program Allfit (De Lean et al., Am. J. Physiol. 235, E97-E102 (1978). The IC50 value was converted to an affinity constant (Ki) by the equation of Cheng & Prusoff (Cheng Y. C., Prusoff W. H., Biochem. Pharmacol. 22, 3099-3108 (1973)).

Row | Ki | Compound
1 | 45.7 nM | O=C(C1CCCCC1)N1c2ccccc2CCC1CN1CCCC(Cc2ccccc2)C1 (single isomer, unassigned) [Example 59, 3-Benzyl-1-(1-cyclohexanecarbonyl-1,2,3,4-tetrahydroquinoline-2-ylmethyl)piperidine]
2 | 15.7 nM | C[C@@H](NC(=O)N1c2ccccc2CCC1CN1CCN(c2cccc3[nH]ccc23)CC1)c1ccccc1 (single isomer, unassigned) [Example 69A5]
3 | 0.7 nM | O=C(C1CCCCC1)N1c2ccccc2CCC1CN1CCN(c2ccccc2OCC(F)(F)F)CC1 (stereo not shown) [Example 4, 1-(1-Cyclohexanecarbonyl-1,2,3,4-tetrahydroquinoline-2-ylmethyl)-4-[2-(2,2,2-trifluoroethoxy)phenyl]piperazine]
4 | 10.7 nM | O=C(C1CCCCC1)N1c2ccc(F)cc2CCC1CN1CCN(c2ccccc2OCC(F)(F)F)CC1 (stereo not shown) [Example 5, 1-(1-Cyclohexanecarbonyl-6-fluoro-1,2,3,4-tetrahydroquinoline-2-ylmethyl)-4-[2-(2,2,2-trifluoroethoxy)phenyl]piperazine]
5 | 31.2 nM | COCCC(=O)N1c2ccccc2CCC1CN1CCN(c2ccccc2OCC(F)(F)F)CC1 (stereo not shown) [Example 7, 1-[1-(3-Methoxypropionyl)-1,2,3,4-tetrahydroquinoline-2-ylmethyl]-4-[2-(2,2,2-trifluoroethoxy)phenyl]piperazine]
6 | 10.3 nM | O=C(CCOCc1ccccc1)N1c2ccccc2CCC1CN1CCN(c2ccccc2OCC(F)(F)F)CC1 (stereo not shown) [Example 8, 1-[1-(3-Benzyloxypropionyl)-1,2,3,4-tetrahydroquinoline-2-ylmethyl]-4-[2-(2,2,2-trifluoroethoxy)phenyl]piperazine]
7 | 9.6 nM | O=C(CCOCc1ccccc1)N1c2ccccc2CCC1CN1CCN(c2cccc3[nH]ccc23)CC1 (stereo not shown) [Example 9, 1-[1-(3-Benzyloxypropionyl)-1,2,3,4-tetrahydroquinoline-2-ylmethyl]-4-(4-indolyl)piperazine]
8 | 40.8 nM | COCCC(=O)N1c2ccccc2CCC1CN1CCN(c2cccc3[nH]ccc23)CC1 (stereo not shown) [Example 11, 1-[1-(3-Methoxypropionyl)-1,2,3,4-tetrahydroquinoline-2-ylmethyl]-4-(4-indolyl)piperazine]
9 | 47.5 nM | CC(C)OCCC(=O)N1c2ccccc2CCC1CN1CCN(c2cccc3[nH]ccc23)CC1 (stereo not shown) [Example 12, 1-[1-(3-Isopropoxypropionyl)-1,2,3,4-tetrahydroquinoline-2-ylmethyl]-4-(4-indolyl)piperazine]
10 | 82 nM | O=C(N1CCOCC1)N1c2ccccc2CCC1CN1CCN(c2cccc3[nH]ccc23)CC1 (stereo not shown) [Example 14, 1-[1-(4-Morpholinocarbonyl)-1,2,3,4-tetrahydroquinoline-2-ylmethyl]-4-(4-indolyl)piperazine]
11 | 8.9 nM | Cn1ccc2c(N3CCN(CC4CCc5ccccc5N4C(=O)C4CCCCC4)CC3)cccc21 (stereo not shown) [Example 15, 1-(1-Cyclohexanecarbonyl-1,2,3,4-tetrahydroquinoline-2-ylmethyl)-4-(1-methyl-4-indolyl)piperazine]
12 | 38.6 nM | CCNC(=O)N1c2ccccc2CCC1CN1CCN(c2cccc3[nH]ccc23)CC1 (stereo not shown) [Example 20, 1-(1-Ethylaminocarbonyl-1,2,3,4-tetrahydroquinoline-2-ylmethyl)-4-(4-indolyl)piperazine]
13 | 9.3 nM | O=C(c1ccccc1)N1c2ccccc2CCC1CN1CCN(c2cccc3[nH]ccc23)CC1 (stereo not shown) [Example 24A4, 1-(1-Benzoyl-1,2,3,4-tetrahydroquinoline-2-ylmethyl)-4-(4-indolyl)piperazine]
14 | 47.9 nM | O=C(C1CCCCC1)N1c2ccc(OC(F)(F)F)cc2CCC1CN1CCN(c2cccc3[nH]ccc23)CC1 (stereo not shown) [Example 26, 1-(1-Cyclohexanecarbonyl-6-trifluoromethoxy-1,2,3,4-tetrahydroquinoline-2-ylmethyl)-4-(4-indolyl)piperazine]
15 | 12.8 nM | O=C(Nc1ccccc1)N1c2ccccc2CCC1CN1CCN(c2cccc3[nH]ccc23)CC1 (stereo not shown) [Example 31, 1-(4-Indolyl)-4-(1-phenylaminocarbonyl-1,2,3,4-tetrahydroquinoline-2-ylmethyl)piperazine]
16 | 2.8 nM | Cc1ccc2c(c1)CCC(CN1CCN(c3cccc4[nH]ccc34)CC1)N2C(=O)C1CCCCC1 (stereo not shown) [Example 32, 1-(1-Cyclohexanecarbonyl-6-methyl-1,2,3,4-tetrahydroquinoline-2-ylmethyl)-4-(4-indolyl)piperazine]
17 | 18.9 nM | O=C(C1CCCCC1)N1c2ccc(Br)cc2CCC1CN1CCN(c2cccc3[nH]ccc23)CC1 (stereo not shown) [Example 34, 1-(6-Bromo-1-cyclohexanecarbonyl-1,2,3,4-tetrahydroquinoline-2-ylmethyl)-4-(4-indolyl)piperazine]
18 | 39.6 nM | O=C(C1CCCCC1)N1c2ccccc2CCC1CN1CCN(c2ccc(Cl)cc2Cl)CC1 (stereo not shown) [Example 35A9, 1-(1-Cyclohexanecarbonyl-1,2,3,4-tetrahydroquinoline-2-ylmethyl)-4-(2,4-dichlorophenyl)piperazine]
19 | 9.5 nM | Cc1ccc(F)c(N2CCN(CC3CCc4ccccc4N3C(=O)C3CCCCC3)CC2)c1 (stereo not shown) [Example 35A12, 1-(1-Cyclohexanecarbonyl-1,2,3,4-tetrahydroquinoline-2-ylmethyl)-4-(2-fluoro-5-methylphenyl)piperazine]
20 | 5.2 nM | O=C(C1CCCCC1)N1c2ccccc2CCC1CN1CCN(c2cc(Cl)ccc2Cl)CC1 (stereo not shown) [Example 35A19, 1-(1-Cyclohexanecarbonyl-1,2,3,4-tetrahydroquinoline-2-ylmethyl)-4-(2,5-dichlorophenyl)piperazine]
21 | 18.2 nM | O=C(C1CCCCC1)N1c2ccccc2CCC1CN1CCN(c2ncccn2)CC1 (stereo not shown) [Example 35A21, 1-(1-Cyclohexanecarbonyl-1,2,3,4-tetrahydroquinoline-2-ylmethyl)-4-(2-pyrimidinyl)piperazine]
22 | 3.1 nM | N#Cc1ccc(Cl)cc1N1CCN(CC2CCc3ccccc3N2C(=O)C2CCCCC2)CC1 (stereo not shown) [Example 35A23, 1-(5-chloro-2-cyanophenyl)-4-(1-cyclohexanecarbonyl-1,2,3,4-tetrahydroquinoline-2-ylmethyl)piperazine]
23 | 11.6 nM | COc1ccc(C#N)cc1N1CCN(CC2CCc3ccccc3N2C(=O)C2CCCCC2)CC1 (stereo not shown) [Example 35A24, 1-(5-Cyano-2-methoxyphenyl)-4-(1-cyclohexanecarbonyl-1,2,3,4-tetrahydroquinoline-2-ylmethyl)piperazine]
24 | 10.1 nM | CC(=O)n1ccc2c(N3CCN(CC4CCc5ccccc5N4C(=O)C4CCCCC4)CC3)cccc21 (stereo not shown) [Example 35A25, 1-(1-Acetyl-4-indolyl)-4-(1-cyclohexanecarbonyl-1,2,3,4-tetrahydroquinoline-2-ylmethyl)piperazine]
25 | 3.1 nM | O=C(C1CCCCC1)N1c2ccccc2CCC1CN1CCN(c2cccc3cc[nH]c23)CC1 (stereo not shown) [Example 35A26, 1-(1-Cyclohexanecarbonyl-1,2,3,4-tetrahydroquinoline-2-ylmethyl)-4-(7-indolyl)piperazine]
26 | 31.1 nM | O=C(C1CCCCC1)N1c2ccccc2CCC1CN1CCN(Cc2ccccc2Br)CC1 (stereo not shown) [Example 35A29, 1-(2-Bromobenzyl)-4-(1-cyclohexanecarbonyl-1,2,3,4-tetrahydroquinoline-2-ylmethyl)piperazine]

Row | Compound | Ki
27 | 1-(2-Cyclopropylacetyl-1,2,3,4-tetrahydroquinoline-2-ylmethyl)-4-(4-indolyl)piperazine [Example 68A11] | 6.8 nM
28 | 1-(2-Ethylbutanoyl-1,2,3,4-tetrahydroquinoline-2-ylmethyl)-4-(4-indolyl)piperazine [Example 24A] | 12.9 nM
29 | 1-(2-Furoyl-1,2,3,4-tetrahydroquinoline-2-ylmethyl)-4-(4-indolyl)piperazine [Example 68A13] | 5.3 nM
30 | 1-(4-Chloro-2-1-propoxyphenyl)-4-(1-cyclohexanecarbonyl-1,2,3,4-tetrahydroquinoline-2-ylmethyl)piperazine [Example 60A] | 10.1 nM
31 | O=C(N1CCCC1)N1c2ccccc2CCC1CN1CCN(c2cccc3[nH]ccc23)CC1 (stereo not shown) [Example 33, 1-(4-Indolyl)-4-(1-pyrrolidinecarbonyl-1,2,3,4-tetrahydroquinoline-2-ylmethyl)piperazine] | 47.7 nM
